“Also recorded” adds a separate entry of the source.
What was measured:
human 5-HT6R = human 5-HT6R (Homo sapiens, UniProt P50406); experiment: 5-HT6R radioligand competitive binding assay ([3H]LSD)
human 5-HT6R WT = molecular target: T1, human 5-HT6R WT (Homo sapiens, UniProt P50406); experiment: 5-HT6R AC assay (cAMP), wild type receptor; format: cell-based; conditions: for disappearance of the 5-HT induced response / functional character at the human 5-HT6R in the AC assay / increase in cAMP levels by ligand alone (agonist effect): HEK-293 cells expressing human 5-HT6R; for IC50: read-out: pIC50, inhibition of 5-HT-induced stimulation of cAMP (converted)
T1 construct: host or cells: HEK-293
T1 sequence (P50406 whole entry): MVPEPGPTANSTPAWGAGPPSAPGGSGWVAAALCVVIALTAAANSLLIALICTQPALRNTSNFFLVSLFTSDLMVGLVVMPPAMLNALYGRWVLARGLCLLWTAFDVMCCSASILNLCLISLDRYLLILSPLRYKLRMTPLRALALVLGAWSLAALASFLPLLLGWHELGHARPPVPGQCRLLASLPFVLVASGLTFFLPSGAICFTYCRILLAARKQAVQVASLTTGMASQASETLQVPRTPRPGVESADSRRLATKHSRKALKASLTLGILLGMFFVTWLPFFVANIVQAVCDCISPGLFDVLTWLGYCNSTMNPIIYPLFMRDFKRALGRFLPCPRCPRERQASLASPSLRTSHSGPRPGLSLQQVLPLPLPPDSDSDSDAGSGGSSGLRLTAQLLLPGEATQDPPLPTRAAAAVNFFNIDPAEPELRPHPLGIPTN

5-HT6R C110A = molecular target: T2, 5-HT6R C110A (Homo sapiens, UniProt P50406, C110A); experiment: 5-HT6R AC assay (cAMP), C110A mutant; format: cell-based
T2 construct: host or cells: HEK-293
T2 sequence (P50406 whole entry C110A): as the sequence (P50406 whole entry) above, with C110A counted along it

5-HT6R S193A = molecular target: T3, 5-HT6R S193A (Homo sapiens, UniProt P50406, S193A); experiment: 5-HT6R AC assay (cAMP), S193A mutant; format: cell-based
T3 construct: host or cells: HEK-293
T3 sequence (P50406 whole entry S193A): as the sequence (P50406 whole entry) above, with S193A counted along it

5-HT6R F285A = molecular target: T4, 5-HT6R F285A (Homo sapiens, UniProt P50406, F285A); experiment: 5-HT6R AC assay (cAMP), F285A mutant; format: cell-based
T4 construct: host or cells: HEK-293
T4 sequence (P50406 whole entry F285A): as the sequence (P50406 whole entry) above, with F285A counted along it

5-HT6R N288A = molecular target: T5, 5-HT6R N288A (Homo sapiens, UniProt P50406, N288A); experiment: 5-HT6R AC assay (cAMP), N288A mutant; format: cell-based
T5 construct: host or cells: HEK-293
T5 sequence (P50406 whole entry N288A): as the sequence (P50406 whole entry) above, with N288A counted along it

[1] = Metabolic stability in human liver microsomes; format: in vitro ADME; conditions: HLMs, compound at 5 μM
Method: (§1) The high-affinity antagonist 7 was selected for the assessment of in vitro pharmacokinetic properties. Metabolic stability using rat and human liver microsomes (RLMs and HLMs, respectively) was determined as a measure of first-pass metabolism. Test compound was incubated at a concentration of 1 and 5 μM with RLM and HLM preparations, respectively. The half-life time (t1/2) was used to calculate the intrinsic clearance (CLint). […] An in vitro fluorescence-based inhibition assay was conducted with cytochrome P450 2D6 (CYP2D6), one of the most important enzymes involved in drug metabolism, using human recombinant microsomal CYP2D6 enzyme, AMMC {3-[2-(N,N-diethyl-N-methylamino)ethyl]-7-methoxy-4-methylcoumarin} as substrate, and quinidine as control inhibitor. After 30 min of incubation with compound 7 at a concentration of 10 μM, a remaining activity of 78% of the cytochrome was found.
(§2) RLM and HLM stability, HSA binding, and fluorescence-based CYP2D6 inhibition assays were performed according to previously reported procedures. Inhibition of hERG K^+ channel current was determined in an automated patch clamp assay using whole CHO-K1 cells at Eurofins Panlab (USA), according to previously published method.

[2] = Metabolic stability in rat liver microsomes; format: in vitro ADME
Method: as §1, §2

CYP2D6 = CYP2D6 (Homo sapiens, UniProt P10635); experiment: Fluorescence-based CYP2D6 inhibition assay; format: in vitro ADME; conditions: human recombinant microsomal CYP2D6 enzyme, 30 min incubation, AMMC substrate, read-out: remaining activity of CYP2D6
Chain of CYP2D6 (P10635 whole entry): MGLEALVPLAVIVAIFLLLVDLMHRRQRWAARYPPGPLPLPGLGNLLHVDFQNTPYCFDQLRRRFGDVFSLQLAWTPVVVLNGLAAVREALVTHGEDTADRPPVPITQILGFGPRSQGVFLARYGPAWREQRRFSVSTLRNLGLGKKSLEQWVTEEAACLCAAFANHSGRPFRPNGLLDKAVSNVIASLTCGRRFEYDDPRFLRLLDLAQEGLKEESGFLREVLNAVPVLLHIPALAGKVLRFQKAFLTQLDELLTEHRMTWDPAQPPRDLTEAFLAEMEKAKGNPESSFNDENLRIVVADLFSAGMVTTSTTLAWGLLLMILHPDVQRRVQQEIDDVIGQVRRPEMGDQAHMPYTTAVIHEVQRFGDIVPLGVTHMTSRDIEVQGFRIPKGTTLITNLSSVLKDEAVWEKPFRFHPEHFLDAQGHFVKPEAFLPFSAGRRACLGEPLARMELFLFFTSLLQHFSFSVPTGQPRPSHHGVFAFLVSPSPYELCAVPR
Method: as §1, §2

[3] = molecular target: human serum albumin (HSA) (Homo sapiens, UniProt P02768); experiment: HSA binding; format: in vitro ADME; conditions: 5 μM
Chain of human serum albumin (HSA) (P02768 25-609): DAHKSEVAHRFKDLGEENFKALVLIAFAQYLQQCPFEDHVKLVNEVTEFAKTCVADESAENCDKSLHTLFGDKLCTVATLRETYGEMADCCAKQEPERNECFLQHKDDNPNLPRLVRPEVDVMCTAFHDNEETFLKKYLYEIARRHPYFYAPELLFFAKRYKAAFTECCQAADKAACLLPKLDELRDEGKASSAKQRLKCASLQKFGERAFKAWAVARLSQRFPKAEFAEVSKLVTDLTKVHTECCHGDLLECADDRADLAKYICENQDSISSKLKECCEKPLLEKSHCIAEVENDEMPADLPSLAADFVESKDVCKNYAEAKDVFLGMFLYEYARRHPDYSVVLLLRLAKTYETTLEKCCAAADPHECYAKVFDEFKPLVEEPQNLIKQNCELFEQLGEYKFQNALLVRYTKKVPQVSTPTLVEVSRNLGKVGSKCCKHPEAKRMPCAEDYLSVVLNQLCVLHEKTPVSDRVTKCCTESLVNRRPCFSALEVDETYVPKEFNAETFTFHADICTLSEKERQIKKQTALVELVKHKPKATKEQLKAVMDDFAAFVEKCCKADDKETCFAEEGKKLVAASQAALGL

[4] = Parallel artificial membrane permeability assay (PAMPA); format: in vitro ADME; conditions: PBS pH 7.4, 25 °C, read-out: permeability value (P)
hERG K+ channel = molecular target: T6, hERG K+ channel (Homo sapiens, UniProt Q12809); experiment: hERG whole-cell patch clamp assay; format: cell-based; conditions: CHO-K1 cells, n = 3, read-out: IC50, blockade of hERG K+ channel current
T6 construct: host or cells: CHO-K1
T6 sequence (Q12809 whole entry): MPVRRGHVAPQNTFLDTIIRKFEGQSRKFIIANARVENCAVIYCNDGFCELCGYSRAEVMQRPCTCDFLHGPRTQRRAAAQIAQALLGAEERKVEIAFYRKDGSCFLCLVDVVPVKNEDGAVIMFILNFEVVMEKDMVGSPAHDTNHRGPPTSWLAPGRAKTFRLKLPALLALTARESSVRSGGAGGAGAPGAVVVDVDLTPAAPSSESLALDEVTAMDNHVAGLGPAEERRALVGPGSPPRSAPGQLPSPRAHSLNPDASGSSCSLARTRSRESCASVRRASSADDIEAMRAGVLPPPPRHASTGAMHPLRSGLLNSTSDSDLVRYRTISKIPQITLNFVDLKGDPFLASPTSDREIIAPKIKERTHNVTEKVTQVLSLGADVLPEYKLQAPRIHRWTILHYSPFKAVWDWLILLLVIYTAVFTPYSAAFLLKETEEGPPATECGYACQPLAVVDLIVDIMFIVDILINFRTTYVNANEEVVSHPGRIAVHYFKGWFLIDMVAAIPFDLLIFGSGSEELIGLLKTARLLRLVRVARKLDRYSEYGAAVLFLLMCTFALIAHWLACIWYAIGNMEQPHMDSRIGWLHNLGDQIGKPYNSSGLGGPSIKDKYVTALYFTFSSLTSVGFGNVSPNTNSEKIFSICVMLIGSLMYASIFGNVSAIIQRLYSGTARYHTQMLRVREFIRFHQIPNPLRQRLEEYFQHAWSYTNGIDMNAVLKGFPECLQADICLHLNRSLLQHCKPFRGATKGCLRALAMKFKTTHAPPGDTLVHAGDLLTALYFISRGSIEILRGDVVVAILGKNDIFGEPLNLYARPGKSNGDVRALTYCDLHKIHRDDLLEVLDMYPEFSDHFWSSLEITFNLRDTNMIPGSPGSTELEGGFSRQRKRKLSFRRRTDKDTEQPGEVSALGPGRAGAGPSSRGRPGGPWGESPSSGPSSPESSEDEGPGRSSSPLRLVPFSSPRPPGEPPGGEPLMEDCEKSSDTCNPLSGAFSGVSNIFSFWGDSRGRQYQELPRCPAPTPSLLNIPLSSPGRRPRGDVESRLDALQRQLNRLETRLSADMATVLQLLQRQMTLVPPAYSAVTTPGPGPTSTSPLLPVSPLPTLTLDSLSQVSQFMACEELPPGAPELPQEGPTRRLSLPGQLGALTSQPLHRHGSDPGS

[5] = molecular target: T7, serotonin 5-HT2A receptor (Homo sapiens, UniProt P28223); experiment: Selectivity panel radioligand binding, 5-HT2A; conditions: [3H]ketanserin (0.5 nM), 60 min, RT, read-out: Inhibition (%) (displacement of radioligand)
T7 construct: Eurofins Cerep (France)
T7 sequence (P28223 whole entry): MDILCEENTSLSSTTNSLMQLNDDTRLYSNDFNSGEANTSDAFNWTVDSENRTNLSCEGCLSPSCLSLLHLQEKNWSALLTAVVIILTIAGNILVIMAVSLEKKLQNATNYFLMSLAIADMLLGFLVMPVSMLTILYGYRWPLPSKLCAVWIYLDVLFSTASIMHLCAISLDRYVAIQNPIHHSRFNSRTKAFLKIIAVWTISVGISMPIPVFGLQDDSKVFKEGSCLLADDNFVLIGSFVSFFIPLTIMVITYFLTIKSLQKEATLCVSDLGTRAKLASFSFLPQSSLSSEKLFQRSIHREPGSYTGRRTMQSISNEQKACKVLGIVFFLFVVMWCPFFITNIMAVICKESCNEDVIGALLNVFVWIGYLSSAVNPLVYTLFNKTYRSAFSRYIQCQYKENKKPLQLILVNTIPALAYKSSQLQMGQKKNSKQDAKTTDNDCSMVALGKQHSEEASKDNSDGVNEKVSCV

[6] = molecular target: T8, serotonin 5-HT2B receptor (Homo sapiens, UniProt P41595); experiment: Selectivity panel radioligand binding, 5-HT2B; conditions: [3H]mesulergine, 60 min, RT, read-out: Inhibition (%) (displacement of radioligand)
T8 construct: Eurofins Cerep (France)
T8 sequence (P41595 whole entry): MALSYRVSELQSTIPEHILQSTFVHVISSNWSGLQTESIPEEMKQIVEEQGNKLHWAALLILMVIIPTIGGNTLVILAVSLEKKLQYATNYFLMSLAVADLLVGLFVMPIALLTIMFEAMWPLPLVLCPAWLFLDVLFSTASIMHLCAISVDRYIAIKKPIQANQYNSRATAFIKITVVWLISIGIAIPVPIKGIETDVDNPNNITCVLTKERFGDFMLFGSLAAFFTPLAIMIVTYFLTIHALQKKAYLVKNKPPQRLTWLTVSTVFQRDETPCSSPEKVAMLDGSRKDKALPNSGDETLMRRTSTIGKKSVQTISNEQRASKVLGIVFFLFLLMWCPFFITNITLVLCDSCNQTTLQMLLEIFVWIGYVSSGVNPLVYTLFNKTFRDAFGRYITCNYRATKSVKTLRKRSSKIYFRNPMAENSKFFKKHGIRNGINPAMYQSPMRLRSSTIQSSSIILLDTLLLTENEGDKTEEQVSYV

[7] = system: rats (time-induced memory deficit); experiment: Novel object recognition task (NORT); format: in vivo, rat; conditions: male Wistar rats, 60 min before each session
[8] = read-out: pIC50, inhibition of 5-HT-induced stimulation of cAMP (converted)

Chain of human 5-HT6R (P50406 whole entry): as the sequence (P50406 whole entry) above

melting point | Ki (human 5-HT6R) | SMILES | other results
108 to 110 °C | > 500 nM | CN(C)CCCn1cnc2cc(C(=O)Nc3ccccc3)ccc21 [Compound S2] | –
– | 37 nM | Cc1c(S(=O)(=O)Nc2ccc3ncn(CCN(C)C)c3c2)sc2ccc(Br)cc12 [Compound 17] | –
92 to 95 °C | 112 nM | CN(C)CCn1cnc2cc(NS(=O)(=O)c3ccc4c(Cl)cccc4c3)ccc21 [Compound 6] | –
76 to 78 °C | 64 nM | CN(C)CCn1cnc2c(NS(=O)(=O)c3ccc4c(Cl)cccc4c3)cccc21 [Compound 5] | –
104 to 106 °C | > 500 nM | CN(C)CCCn1cnc2c(C(=O)Nc3ccccc3)cccc21 [Compound S1] | –
175 to 176 °C | 195 nM | Cc1c(S(=O)(=O)Nc2ccc3ncn(CCN(C)C)c3c2)sc2ccccc12 [Compound 19] | –
– | – | NCCc1c[nH]c2ccc(O)cc12 [Compound 5-HT, 5-HT] | cAMP release (5-HT) Efficacy (human 5-HT6R WT; 5-HT6R WT): agonist; cAMP release (5-HT) Efficacy (5-HT6R C110A; 5-HT6R C110A): agonist; cAMP release (5-HT) Efficacy (5-HT6R S193A; 5-HT6R S193A): agonist; cAMP release (5-HT) Efficacy (5-HT6R F285A; 5-HT6R F285A): agonist; cAMP release (5-HT) Efficacy (5-HT6R N288A; 5-HT6R N288A): agonist
181 °C (dec.) | > 500 nM | CN(C)CCn1cnc2ccc(NS(=O)(=O)c3ccc4cc(Cl)ccc4c3)cc21 [Compound 14] | –
223 °C (dec.) | 238 nM | CN(C)CCn1cnc2ccc(NS(=O)(=O)c3cccc4c(Cl)cccc34)cc21 [Compound 15] | –
115 to 117 °C | > 500 nM | CN(C)CCn1cnc2ccc(NC(=O)c3ccccc3)cc21 [Compound S9] | –
142 to 145 °C | > 500 nM | CN(C)CCn1cnc2cccc(NS(=O)(=O)c3ccccc3)c21 [Compound S11] | –
109 to 112 °C | > 500 nM | CN(C)CCn1cnc2c(NC(=O)c3ccccc3)cccc21 [Compound S7] | –
178 to 180 °C | 213 ± 8 nM | CN(C)CCn1cnc2cc(NS(=O)(=O)c3ccccc3)ccc21 [Compound 3] | –
138 to 140 °C | 200 ± 10 nM | CN(C)CCn1cnc2ccc(NS(=O)(=O)c3ccccc3)cc21 [Compound 4] | –
71 to 74 °C | 200 ± 13 nM | CN(C)CCn1cnc2c(NS(=O)(=O)c3c(Cl)nc4sccn34)cccc21 [Compound 11] | –
121 to 123 °C | 243 ± 15 nM | CN(C)CCn1cnc2c(NS(=O)(=O)c3ccccc3)cccc21 [Compound 2] | –
– | – | CC(C)NCC(O)COc1cccc2ccccc12 (centres unmarked) [propranolol, reference compound] | Papp at 5 h, 200 μM [4]: 25 ×10⁻⁶ cm/s
99 to 101 °C | 33 ± 3 nM | CN(C)CCn1cnc2cc(NS(=O)(=O)c3c(Cl)nc4sccn34)ccc21 [Compound 12] | –
– | – | Nc1c2c(nc3ccccc13)CCCC2 [tacrine, reference compound] | effect on time-induced memory deficit in NORT (exploration of novel vs familiar object) ([7]; 0.5 mg/kg, po): animals spent more time exploring the novel object than the familiar one
207 to 208 °C | 144 nM | CN(C)CCn1cnc2ccc(NS(=O)(=O)c3ccc4ccccc4c3)cc21 [Compound 18] | –
90 to 93 °C | 245 nM | Cc1c(S(=O)(=O)Nc2ccc3c(c2)ncn3CCN(C)C)sc2ccc(Cl)cc12 [Compound 9] | –
98 to 101 °C | > 500 nM | CN(C)CCn1cnc2cccc(NC(=O)c3ccccc3)c21 [Compound S10] | –
90 to 93 °C | 89 nM | Cc1c(S(=O)(=O)Nc2cccc3c2ncn3CCN(C)C)sc2ccc(Cl)cc12 [Compound 8] | –
114 to 115 °C | 25 nM | Cc1c(S(=O)(=O)Nc2ccc3ncn(CCN(C)C)c3c2)sc2ccc(Cl)cc12 [Compound 10] | disappearance of the 5-HT induced response (human 5-HT6R WT): ≥ 95%; functional character at the human 5-HT6R in the AC assay (human 5-HT6R WT): antagonists; increase in cAMP levels by ligand alone (agonist effect) (human 5-HT6R WT): did not induce a substantial increase in cAMP levels; IC50 (human 5-HT6R WT): 50.1 nM
113 to 115 °C | > 500 nM | CN(C)CCn1cnc2cc(NC(=O)c3ccccc3)ccc21 [Compound S8] | –
– | 12 nM | CN(C)CCn1cnc2ccc(NS(=O)(=O)c3ccc4c(Br)cccc4c3)cc21 [Compound 16] | –
139 to 141 °C | 182 ± 6 nM | CN(C)CCn1cnc2ccc(NS(=O)(=O)c3c(Cl)nc4sccn34)cc21 [Compound 13] | –

SMILES | melting point | Ki (human 5-HT6R) | other results
CN(C)CCn1cnc2ccc(NS(=O)(=O)c3ccc4c(Cl)cccc4c3)cc21 [Compound 7, 5-Chloro-N-{1-[2-(dimethylamino)ethyl]-1H-benzimidazol-6-yl}naphthalene-2-sulfonamide] | – | 9 nM | disappearance of the 5-HT induced response (human 5-HT6R WT): ≥ 95%; functional character at the human 5-HT6R in the AC assay (human 5-HT6R WT): antagonists; increase in cAMP levels by ligand alone (agonist effect) (human 5-HT6R WT): did not induce a substantial increase in cAMP levels; IC50 (human 5-HT6R WT): 15.8 nM; IC50 (5-HT6R C110A; [8]): 158 nM; IC50 (5-HT6R S193A; [8]): 1260 nM; IC50 (5-HT6R F285A; [8]): ~31600 nM; IC50 (5-HT6R N288A; [8]): 126 nM; CLint scaled at 5 μM ([1]; calculated from t1/2, read-out: intrinsic clearance (CLint)): 8 mL/min/kg; half-life at 5 μM ([1]; read-out: half-life time (t1/2)): 77.5 min; half-life at 1 μM ([2]; RLMs, compound at 1 μM, read-out: half-life time (t1/2)): 20.7 min; CLint scaled at 1 μM ([2]; read-out: intrinsic clearance (CLint)): 67.8 mL/min/kg; activity at 30 min, 10 µM (CYP2D6): 78%; binding to HSA [3]: 70%; Papp at 5 h, 200 μM [4]: 12 ×10⁻⁶ cm/s; IC50 (hERG K+ channel): > 10000 nM; inhibition at 1 µM [5]: < 23%; inhibition at 1 µM [6]: 16%; effect on time-induced memory deficit in NORT (exploration of novel vs familiar object) ([7]; 1 mg/kg, ip, 1 mg/kg): in vivo procognitive activity; also recorded: animals spent more time exploring the novel object than the familiar one; also recorded: significant reversal of the time-delay induced memory deficit

Source: paper PMC5259792, “A new serotonin 5-HT6 receptor antagonist with procognitive activity – Importance of a halogen bond interaction to stabilize the binding” (Scientific Reports, 2017)
